Several values for one entry are separate records, joined by “and”; a condition that tells them apart may be missing. Equal entries are not always repeated.
How the values were obtained:
[1] = Total antioxidant capacity (TAC); assay type: biochemical; conditions: mean ± SE, n = 3
Experimental: (§1) The antioxidant activity was assessed using the iron reducing power (IRP) and the total antioxidant capacity (TAC). Ascorbic acid served as a standard to calculate the inhibition percentages (%) and the median inhibitory concentration (IC50) of each tested compound against the following radicals: nitric oxide (NO), hydroxyl (OH), hydrogen peroxide (H2O2), ABTS [79], and DPPH [80].

[2] = Nitric oxide (NO) radical scavenging; assay type: biochemical; conditions: mean ± SE, n = 3; for NO (%): inhibition % at 20 µg/mL
Experimental: as §1

DPPH radical scavenging = assay type: biochemical; conditions: mean ± SE, n = 3; for DPPH (%): inhibition % at 20 µg/mL
Experimental: as §1

ABTS radical scavenging = assay type: biochemical; conditions: mean ± SE, n = 3; for ABTS (%): inhibition % at 20 µg/mL
Experimental: as §1

[3] = Hydroxyl (OH) radical scavenging; assay type: biochemical; conditions: mean ± SE, n = 3; for OH (%): inhibition % at 20 µg/mL
Experimental: as §1

[4] = Hydrogen peroxide (H2O2) scavenging; assay type: biochemical; conditions: mean ± SE, n = 3; for H2O2 (%): inhibition % at 20 µg/mL
Experimental: as §1

[5] = Iron-reducing power (IRP); assay type: biochemical; conditions: mean ± SE, n = 3
Experimental: as §1

proteinase enzyme = assay: Proteinase inhibition (anti-arthritic); assay type: biochemical; set-up: Proteinase Inhibition (%): concentration or dose not given beside the values; conditions: mean ± SE, n = 3
Experimental: (§2) Anti-arthritic activity was evaluated using diclofenac sodium as the reference drug. The inhibition percentage and IC50 were determined for protein denaturation and the proteinase enzyme.

protein denaturation = assay: Protein denaturation inhibition (anti-arthritic); assay type: biochemical; set-up: concentration or dose not given beside the values; conditions: mean ± SE, n = 3
Experimental: as §2

[6] = biological target: acetylcholinesterase (AChE) (Homo sapiens, UniProt P22303); assay: biochemical; conditions: mean ± SE, n = 3; for IC50: read-out: AChE IC50 (µg/mL) (converted)
Sequence of acetylcholinesterase (AChE) (P22303 32-614, species assumed): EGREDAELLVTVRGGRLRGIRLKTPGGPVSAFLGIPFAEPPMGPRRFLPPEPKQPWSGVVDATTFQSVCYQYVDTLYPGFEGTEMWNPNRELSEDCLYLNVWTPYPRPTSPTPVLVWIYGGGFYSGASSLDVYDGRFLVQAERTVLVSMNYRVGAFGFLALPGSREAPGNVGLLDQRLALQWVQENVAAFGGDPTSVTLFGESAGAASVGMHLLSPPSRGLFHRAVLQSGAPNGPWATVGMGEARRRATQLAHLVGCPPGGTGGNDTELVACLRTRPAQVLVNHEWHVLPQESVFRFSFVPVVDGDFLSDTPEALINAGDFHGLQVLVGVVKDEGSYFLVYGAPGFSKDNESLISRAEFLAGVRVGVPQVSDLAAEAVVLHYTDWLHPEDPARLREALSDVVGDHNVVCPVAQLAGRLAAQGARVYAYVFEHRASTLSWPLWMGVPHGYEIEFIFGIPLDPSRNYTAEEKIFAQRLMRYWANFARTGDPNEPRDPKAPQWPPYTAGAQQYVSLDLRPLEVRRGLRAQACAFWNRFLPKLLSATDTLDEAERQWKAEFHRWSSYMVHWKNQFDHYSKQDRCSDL
Experimental: The inhibition percentage and IC50 of the acetylcholinesterase (AChE) enzyme were measured using the Ellman method.

α-amylase = biological target: T1, α-amylase (Homo sapiens, UniProt P04746); assay: α-Amylase inhibition; assay type: biochemical; conditions: read-out: α-Amylase Inhibition (%)
T1 sequence (P04746 16-511): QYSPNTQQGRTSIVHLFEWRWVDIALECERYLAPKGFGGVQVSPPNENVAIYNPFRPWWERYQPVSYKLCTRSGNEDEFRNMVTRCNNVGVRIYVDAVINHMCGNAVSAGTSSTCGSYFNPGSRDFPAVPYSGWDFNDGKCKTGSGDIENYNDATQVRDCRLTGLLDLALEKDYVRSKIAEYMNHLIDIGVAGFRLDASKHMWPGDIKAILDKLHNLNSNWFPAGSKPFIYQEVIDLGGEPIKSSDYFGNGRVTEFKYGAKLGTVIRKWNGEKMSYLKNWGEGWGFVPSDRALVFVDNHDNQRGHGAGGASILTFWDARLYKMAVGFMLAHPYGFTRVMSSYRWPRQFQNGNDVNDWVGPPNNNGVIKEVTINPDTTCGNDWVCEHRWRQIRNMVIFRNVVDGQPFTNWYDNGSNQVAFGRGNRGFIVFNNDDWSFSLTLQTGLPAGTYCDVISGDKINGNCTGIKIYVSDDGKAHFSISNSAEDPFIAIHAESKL
Experimental: (§3) The IC50 and inhibition percentages (Inhib. %) of the enzymes α-amylase and α-glucosidase were calculated.

α-glucosidase = assay: α-Glucosidase inhibition; assay type: biochemical
Experimental: as §3

Row | SMILES | TAC (mg Gallic Acid/g) [1] | NO radical scavenging IC50 [2] | DPPH radical scavenging IC50 (DPPH radical scavenging) | ABTS radical scavenging IC50 (ABTS radical scavenging) | OH radical scavenging IC50 [3] | H2O2 scavenging IC50 [4] | IRP [5] | Proteinase IC50 (proteinase enzyme) | Proteinase Inhibition (%) (proteinase enzyme) | NO (%) [2] | DPPH (%) (DPPH radical scavenging) | Protein Denaturation Inhibition (%) (protein denaturation) | ABTS (%) (ABTS radical scavenging) | inhibition at 20 µg/mL [6] | IC50 [6] | OH (%) [3] | H2O2 (%) [4] | inhibition at 20 µg/mL (α-amylase) | α-Glucosidase IC50 (α-glucosidase) | inhibition of α-glucosidase (α-glucosidase; at 20 µg/mL)
1 | O=C1O[C@H]([C@@H](O)CO)C(O)=C1O [ascorbic acid, reference compound] | 78.44 mg Gallic Acid/g | 6.18 µg/mL | 5.45 µg/mL | 4.35 µg/mL | 8.31 µg/mL | 9.24 µg/mL | 67.49 µg/mL |  |  |  |  |  |  |  |  |  |  |  |  | 
2 | O=c1/c(=C\[C@H](O)[C@@H](O)[C@H](O)CO)sc2nc3sc4c(c3c(=O)n12)CCCC4 [8d, (E)-2-((2S,3R,4R)-2,3,4,5-tetrahydroxypentylidene)-6,7,8,9-tetrahydro-5H-benzo [4,5]thieno [2,3-d]thiazolo [3,2-a]-pyrimidine-3,5(2H)-dione] | 17.02 ± 0.21 mg Gallic Acid/g | 51.52 ± 0.85 µg/mL | 28.53 ± 0.30 µg/mL | 19.31 ± 0.23 µg/mL | 69.29 ± 2.28 µg/mL | 77.03 ± 1.82 µg/mL | 9.87 ± 0.21 µg/mL | 65.40 ± 1.90 µg/mL | 7.11 ± 0.18% | 7.87 ± 0.21% | 13.62 ± 0.21% | 11.28 ± 0.18% | 16.77 ± 0.21% | 5.61 ± 0.18% | 125 µM | 6.84 ± 0.19% | 7.66 ± 0.21% | 13 ± 0.2% | 33.99 ± 0.98 µg/mL | 
3 | O=c1/c(=C\[C@H](O)[C@@H](O)[C@H](O)CO)sc2nc3sc4c(c3c(=O)n12)CCC4 [7d, (E)-2-((2S,3R,4R)-2,3,4,5-tetrahydroxypentylidene)-7,8-dihydro-5H,6H-cyclopenta [4,5]thieno [2,3-d]thiazolo [3,2-a]-pyrimidine-3,5(2H)-dione] | 20.09 ± 0.23 mg Gallic Acid/g | 37.06 ± 1.13 µg/mL | 23.28 ± 0.49 µg/mL | 16.31 ± 0.16 µg/mL | 49.77 ± 0.65 µg/mL | 55.36 ± 1.03 µg/mL | 12.94 ± 0.23 µg/mL | 48.10 ± 0.46 µg/mL | 9.65 ± 0.19% | 10.94 ± 0.23% | 16.69 ± 0.23% | 13.82 ± 0.19% | 19.84 ± 0.23% | 4.4 ± 0.14% | 165 µM | 9.51 ± 0.20% | 10.65 ± 0.22% | 15.9 ± 0.22% | 23.09 ± 0.41 µg/mL | 
4 | O=c1/c(=C\[C@H](O)[C@@H](O)[C@H](O)[C@H](O)CO)sc2nc3sc4c(c3c(=O)n12)CCC4 [7a, (E)-2-((2S,3R,4R,5R)-2,3,4,5,6-pentahydroxyhexylidene)-7,8-dihydro-5H,6H-cyclopenta-[4,5]thieno [2,3-d]thiazolo [3,2-a]pyrimidine-3,5(2H)-dione] | 17.44 mg Gallic Acid/g and 17.44 ± 0.22 mg Gallic Acid/g | 48.89 ± 0.78 µg/mL |  | 18.83 ± 0.22 µg/mL | 65.77 ± 2.12 µg/mL | 73.10 ± 1.67 µg/mL | 10.29 µg/mL and 10.29 ± 0.22 µg/mL | 62.33 ± 1.77 µg/mL | 7.45 ± 0.18% | 8.29 ± 0.22% | 14.04 ± 0.22% | 11.62 ± 0.18% | 17.19 ± 0.22% | 5.75 ± 0.18% | 117 µM | 7.21 ± 0.19% | 8.07 ± 0.21% | 13.4 ± 0.21% | 31.92 ± 0.89 µg/mL | 
5 | O=c1/c(=C\[C@H](O)[C@@H](O)[C@@H](O)[C@H](O)CO)sc2nc3sc4c(c3c(=O)n12)CCC4 [7c, (E)-2-((2S,3R,4S,5R)-2,3,4,5,6-pentahydroxyhexylidene)-7,8-dihydro-5H,6H-cyclopenta [4,5]thieno [2,3-d]thiazolo [3,2-a]-pyrimidine-3,5(2H)-dione] | 20.40 ± 0.26 mg Gallic Acid/g | 36.00 ± 0.45 µg/mL | 22.84 ± 0.23 µg/mL | 16.06 ± 0.19 µg/mL | 48.42 ± 1.40 µg/mL | 53.83 ± 1.05 µg/mL | 13.25 ± 0.26 µg/mL | 46.88 ± 1.21 µg/mL | 9.91 ± 0.21% | 11.25 ± 0.26% | 17.00 ± 0.26% | 14.08 ± 0.21% | 20.15 ± 0.26% | 5.87 ± 0.19% | 115 µM | 9.78 ± 0.22% | 10.96 ± 0.25% | 16.2 ± 0.24% | 22.37 ± 0.53 µg/mL | 
6 | O=c1/c(=C\[C@@H](O)[C@@H](O)[C@H](O)[C@H](O)CO)sc2nc3sc4c(c3c(=O)n12)CCC4 [7b, (E)-2-((2R,3R,4R,5R)-2,3,4,5,6-pentahydroxyhexylidene)-7,8-dihydro-5H,6H-cyclopenta [4,5]thieno [2,3-d]thiazolo [3,2-a]pyrimidine-3,5(2H)-dione] | 21.59 ± 0.25 mg Gallic Acid/g | 32.58 ± 0.96 µg/mL | 21.36 ± 0.44 µg/mL | 15.17 ± 0.15 µg/mL | 43.75 ± 0.52 µg/mL | 48.67 ± 0.85 µg/mL | 14.44 ± 0.25 µg/mL | 42.61 ± 0.37 µg/mL | 10.89 ± 0.20% | 12.44 ± 0.25% | 18.19 ± 0.25% | 15.06 ± 0.20% | 21.34 ± 0.25% | 5.14 ± 0.16% | 131 µM | 10.82 ± 0.21% | 12.12 ± 0.24% | 17.3 ± 0.24% | 19.96 ± 0.34 µg/mL | 
7 | O=c1/c(=C\[C@@H](O)[C@H](O)[C@H](O)CO)sc2nc3sc4c(c3c(=O)n12)CCC4 [7e, (E)-2-((2R,3S,4R)-2,3,4,5-tetrahydroxypentylidene)-7,8-dihydro-5H,6H-cyclopenta [4,5]thieno [2,3-d]thiazolo [3,2-a]-pyrimidine-3,5(2H)-dione] | 18.77 ± 0.21 mg Gallic Acid/g | 42.12 ± 1.33 µg/mL | 25.27 ± 0.54 µg/mL | 17.47 ± 0.17 µg/mL | 56.57 ± 0.81 µg/mL | 62.92 ± 1.25 µg/mL | 11.62 ± 0.21 µg/mL | 54.22 ± 0.58 µg/mL | 8.56 ± 0.18% | 9.62 ± 0.21% | 15.37 ± 0.21% | 12.73 ± 0.18% | 18.52 ± 0.21% | 4.11 ± 0.13% | 176 µM | 8.37 ± 0.19% | 9.37 ± 0.21% | 14.6 ± 0.2% | 26.75 ± 0.52 µg/mL | 
8 | O=C(O)Cc1ccccc1Nc1c(Cl)cccc1Cl [Diclofenac sodium, reference compound] |  |  |  |  |  |  |  | 8.20 ± 0.06 µg/mL | 56.57 ± 0.14% |  |  | 60.74 ± 0.14% |  |  |  |  |  |  |  | 
9 | C[C@H]1O[C@H](O[C@H]2[C@H](O)[C@@H](O)[C@@H](O[C@H]3[C@H](O)[C@@H](O)C(O)O[C@@H]3CO)O[C@@H]2CO)[C@H](O)[C@@H](O)[C@@H]1N[C@H]1C=C(CO)[C@@H](O)[C@H](O)[C@H]1O (some centres unmarked) [Acarbose, reference compound] |  |  |  |  |  |  |  |  |  |  |  |  |  |  |  |  |  | 69.85 ± 0.16% |  | 63.10 ± 0.16%
